How the values were obtained:
mice = assay: Kidney toxicity determined by urine test; type: in vivo, mouse
Experimental: (2) Kidney toxicity determined by urine test
PQQ.2Na, PQQ trimethyl ester and PQQ triallyl ester were intraperitoneally administered to mice and they were bred in the same manner as in the above acute toxicity test. The doses per kg of body weight of mouse were 20, 40 and 80 mg for PQQ.2Na and 20, 40, 80, 160 and 200 mg for PQQ triesters. Urine was collected every day and glucose concentration was examined using clinical examination reagent (trademark: […] II manufactured by Miles.Sankyo Co.).

[1] = system: carbon tetrachloride (CCl4)-induced liver diseases; assay: Pharmacological activity (1) on carbon tetrachloride (CCl4)-induced liver diseases; type: in vivo, SD rats; conditions: i.p. 5 mg/kg rat twice, CCl4 1 ml/kg rat, 24 hours, average of five rats
Experimental: Pharmacological activity (1) of PQQ triesters on carbon tetrachloride (CCl4)-induced liver diseases:
Twenty SD rats (male, 7 weeks old, body weight: about 220 g; supplied by Japan Charles River Co.) were divided to four groups (A-D) each consisting of five rats. All rats were fasted for 16 hours and 1.1 ml of a solution containing 1 mg/ml of PQQ trimethyl ester was intraperitoneally administered to the rats of group C and 1.1 ml of a solution containing 1 mg/ml of PQQ triallyl ester was intraperitoneally administered to the rats of group D and after lapse of 40 minutes, the same PQQ triesters in the same dose as above was intraperitoneally administered, respectively. For administration, the PQQ triesters were suspended in physiological saline containing 1 % Tween 80, 1.1 ml of physiological saline was intraperitoneally administered to the rats of group B in place of PQQ triesters. Furthermore, after 20 minutes, 2.2 ml of 10 vol% carbon tetrachloride (solution in olive oil) was administered to stomach of the rats of groups B-D. Neither PQQ triesters nor carbon tetrachloride were administered to the rats of group A.
After 24 hours from administration of carbon tetrachloride, blood was collected from abdominal main artery and serum was obtained by centrifugation therefrom.
GPT, GOT and amount of total bilirubin in the serum were measured by clinical examination reagent (trademark: FUJI DRYCHEMSLIDE manufactured by Fuji Photo Film Co., Ltd.). The results are shown in Table 5 by average value of five rats.

[2] = system: D-galactosamine-induced liver diseases; assay: Pharmacological effect (2) on D-galactosamine-induced liver diseases; type: in vivo, SD rats; conditions: D-galactosamine 1 g/kg rat i.p., 23 hours, average of five rats; for Total bilirubin in serum: D-galactosamine alone 1.4; for GPT in serum: D-galactosamine alone 1560; for GOT in serum: D-galactosamine alone 2542
Experimental: Pharmacological effect (2) of PQQ triesters on D-galactosamine-induced liver diseases:
Forty SD rats (male, 7 weeks old, body weight: about 260 g; supplied by Japan Charles River Co.) were divided to eight groups (A-H) each consisting of five rats. All rats were fasted for 18 hours and 1.3 ml of a solution containing 1 mg/ml of PQQ trimethyl ester was orally administered to the rats of group C, 1.3 ml of a solution containing 2 mg/ml of PQQ trimethyl ester was orally administered to the rats of group D, 1.3 ml of a solution containing 3 mg/ml of PQQ trimethyl ester was orally administered to the rats of group E, 1.3 ml of a solution containing 1 mg/ml of PQQ triallyl ester was orally administered to the rats of group F, 1.3 ml of a solution containing 2 mg/ml of PQQ triallyl ester was orally administered to the rats of group G, and 1.3 ml of a solution containing 3 mg/ml of PQQ triallyl ester was orally administered to the rats of group H and furthermore, after lapse of 40 minutes, the same PQQ triesters in the same doses as above were orally administered to respective rats. In these cases, the PQQ triesters were suspended in physiological saline containing 1% Tween 80 and administered to the rats. 1.3 ml of physiological saline was orally administered to the rats of group B in place of PQQ triesters. Furthermore, after lapse of 20 minutes, 1.3 ml of a solution of d-galactosamine in 10 ml of physiological saline was intraperitoneally administered to the rats of groups B-H. Neither PQQ triesters nor D-galactosamine were administered to the rats of group A.
After 23 hours from administration of D-galactosamine, blood was collected from abdominal main artery and serum was obtained by centrifugation therefrom.
GPT, GOT and amount of total bilirubin in the serum were measured by clinical examination reagent (trademark: FUJI DRYCHEMSLIDE manufactured by Fuji Photo Film Co., Ltd.). The results are shown in Table 8 by average value of five rats.

[3] = bovine, not told, 960 min
Experimental: Each compound dissolved in 10 mM HEPES buffer (containing 1%DMSO in the case of PQQ triesters) was put in an apparatus for measurement of membrane permeation constant and left to stand for 16 hours at 35 ° C. and then amount of the compound which migrated was measured by ultraviolet absorption (243 nm for PQQ 2Na and 255 nm for PQQ triester) to obtain membrane permeation constant.

For C=CCOC(=O)c1cc(C(=O)OCC=C)c2c(n1)C(=O)C(=O)c1cc(C(=O)OCC=C)[nH]c1-2 [PQQ triallyl ester], the glucose in urine (mice; i.p. 20 mg/kg, day 1) was “-”, the glucose in urine (mice; i.p. 20 mg/kg, day 2) was “-” and the glucose in urine (mice; i.p. 20 mg/kg, day 3) was “-”. The glucose in urine (mice; i.p. 20 mg/kg, day 6) was “-”, the glucose in urine (mice; i.p. 20 mg/kg, day 7) was “-” and the glucose in urine (mice; i.p. 20 mg/kg, day 8) was “-”. The glucose in urine (mice; i.p. 20 mg/kg, day 10) was “-”, the glucose in urine (mice; i.p. 20 mg/kg, day 13) was “-” and the glucose in urine (mice; i.p. 20 mg/kg, day 14) was “-”. The glucose in urine (mice; i.p. 40 mg/kg, day 1) was “-”, the glucose in urine (mice; i.p. 40 mg/kg, day 2) was “-” and the glucose in urine (mice; i.p. 40 mg/kg, day 3) was “-”. The glucose in urine (mice; i.p. 40 mg/kg, day 6) was “-”, the glucose in urine (mice; i.p. 40 mg/kg, day 7) was “-” and the glucose in urine (mice; i.p. 40 mg/kg, day 8) was “-”. For the same compound, the glucose in urine (mice; i.p. 40 mg/kg, day 10) was “-”, the glucose in urine (mice; i.p. 40 mg/kg, day 13) was “-” and the glucose in urine (mice; i.p. 40 mg/kg, day 14) was “-”. For the same compound, the glucose in urine (mice; i.p. 80 mg/kg, day 1) was “-”, the glucose in urine (mice; i.p. 80 mg/kg, day 2) was “-” and the glucose in urine (mice; i.p. 80 mg/kg, day 3) was “-”. For the same compound, the glucose in urine (mice; i.p. 80 mg/kg, day 6) was “-”, the glucose in urine (mice; i.p. 80 mg/kg, day 7) was “-” and the glucose in urine (mice; i.p. 80 mg/kg, day 8) was “-”. The glucose in urine (mice; i.p. 80 mg/kg, day 10) was “-”, the glucose in urine (mice; i.p. 80 mg/kg, day 13) was “-” and the glucose in urine (mice; i.p. 80 mg/kg, day 14) was “-”. For the same compound, the glucose in urine (mice; i.p. 160 mg/kg, day 1) was “-”, the glucose in urine (mice; i.p. 160 mg/kg, day 2) was “-” and the glucose in urine (mice; i.p. 160 mg/kg, day 3) was “-”. The glucose in urine (mice; i.p. 160 mg/kg, day 6) was “-”, the glucose in urine (mice; i.p. 160 mg/kg, day 7) was “-” and the glucose in urine (mice; i.p. 160 mg/kg, day 8) was “-”. The glucose in urine (mice; i.p. 160 mg/kg, day 10) was “-”, the glucose in urine (mice; i.p. 160 mg/kg, day 13) was “-” and the glucose in urine (mice; i.p. 160 mg/kg, day 14) was “-”. For the same compound, the glucose in urine (mice; i.p. 200 mg/kg, day 1) was “-”, the glucose in urine (mice; i.p. 200 mg/kg, day 2) was “-” and the glucose in urine (mice; i.p. 200 mg/kg, day 3) was “-”. The glucose in urine (mice; i.p. 200 mg/kg, day 6) was “-”, the glucose in urine (mice; i.p. 200 mg/kg, day 7) was “-” and the glucose in urine (mice; i.p. 200 mg/kg, day 8) was “-”. For the same compound, the glucose in urine (mice; i.p. 200 mg/kg, day 10) was “-”, the glucose in urine (mice; i.p. 200 mg/kg, day 13) was “-” and the glucose in urine (mice; i.p. 200 mg/kg, day 14) was “-”. The “glucose in urine (in words)” value (mice; i.p., all doses) was “no glucose was detected”, the “Total bilirubin in serum” value ([1]; CCl4 alone 1.2) was 0.8 mg/dL and the GPT in serum ([1]; CCl4 alone 818) was 371 U/l. The GOT in serum ([1]; CCl4 alone 3308) was 2150 U/l, the “Total bilirubin in serum” value ([2]; oral 5 mg/kg rat twice) was 1.1 mg/dL and the GPT in serum ([2]; oral 5 mg/kg rat twice) was 619 U/l. For the same compound, the GOT in serum ([2]; oral 5 mg/kg rat twice) was 1409 U/l, the “Total bilirubin in serum” value ([2]; oral 10 mg/kg rat twice) was 0.9 mg/dL and the GPT in serum ([2]; oral 10 mg/kg rat twice) was 570 U/l. The GOT in serum ([2]; oral 10 mg/kg rat twice) was 1184 U/l, the “Total bilirubin in serum” value ([2]; oral 15 mg/kg rat twice) was 1.0 mg/dL and the GPT in serum ([2]; oral 15 mg/kg rat twice) was 593 U/l. For the same compound, the GOT in serum ([2]; oral 15 mg/kg rat twice) was 1742 U/l, the Membrane permeation constant [3] was 2.42 ± 0.60 10^-7 cm^2 · sec^-1 and the “membrane permeation constant relative to that of PQQ.2Na” value [3] was 3-4 times.
